Holding throughout (test): In vitro antibacterial activity, broth microdilution MIC90
Holding throughout (assay type): cell-based
(In broth dilution the organism is exposed to a series of concentrations in liquid medium.)

In test [1] the test system is Methicillin Resistant Staphylococcus aureus. Put shortly:
(§1)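 Antibacterial testing used the CLSI M7-A5 dilution method for aerobic bacteria across twelve strains, including resistant staphylococcal and enterococcal isolates. Final drug levels of 0.063 μg/mL up to 128 μg/mL were tested; linezolid was included for comparison.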

For test [2], the system named is Vancomycin Resistant Enterococcus faecalis. Put shortly: as §1
The test system of test [3] is Linezolid and Vancomycin Resistant Enterococcus faecalis. The essentials:
as §1

The subject of test [4] is Enterococcus faecalis. Put shortly:
as §1

The test system of test [5] is Staphylococcus aureus. The essentials: as §1
Test [6] has as its system Vancomycin Resistant Enterococcus faecium. Put shortly:
as §1

The test system of test [7] is Methicillin Resistant Staphylococcus epidermidis. Put shortly:
as §1

Test [8] concerns Linezolid and Vancomycin Resistant Enterococcus faecium (strain 10). The essentials:
as §1

Test [9] has as its system Staphylococcus epidermidis. The essentials:
as §1

Test [10] deals with Moraxella catarrhalis. The essentials: as §1
Test [11] relates to Linezolid and Vancomycin Resistant Enterococcus faecium (strain 11). Put shortly:
as §1

Test [12] relates to Enterococcus faecium. The essentials: as §1

The MIC90 is the lowest concentration that inhibits either 90% of growth or 90% of the strains tested, depending on the study.

Converted amounts (≈) assume the structure as drawn. Where two headings read alike, the source gives them in different places.

Turning to `COC(=O)NC[C@H]1CN(c2ccc(-c3ccc(N4C=NN(C)CC4)nc3)c(F)c2)C(=O)O1` [Compound 24], the MIC90 in [1] (Staphylococcus aureus) came to 1 µg/mL (≈ 2.26 µM); in test [2] (Enterococcus faecalis), 1 µg/mL (≈ 2.26 µM); in test [3] (Enterococcus faecalis), 4 µg/mL (≈ 9.04 µM); in [4] (Enterococcus faecalis), 1 µg/mL (≈ 2.26 µM); in [5] (Staphylococcus aureus), 0.5 µg/mL (≈ 1.13 µM); in [6] (Enterococcus faecium) it was 0.5 µg/mL (≈ 1.13 µM). The MIC90 turned out to be 2 µg/mL (≈ 4.52 µM) in test [7] (Staphylococcus epidermidis); 4 µg/mL (≈ 9.04 µM) in test [8] (Enterococcus faecium); 0.5 µg/mL (≈ 1.13 µM) in test [9] (Staphylococcus epidermidis); 4 µg/mL (≈ 9.04 µM) in test [10] (Moraxella catarrhalis); 8 µg/mL (≈ 18.1 µM) in test [11] (Enterococcus faecium); 0.5 µg/mL (≈ 1.13 µM) in test [12] (Enterococcus faecium).
Consider `C=CCN1CCN(c2ccc(-c3ccc(N4C[C@H](CNC(C)=O)OC4=O)cc3F)cn2)C=N1` [Compound 7], for which the MIC90 in test [1] (Staphylococcus aureus) came to 1 µg/mL (≈ 2.21 µM); in [2] (Enterococcus faecalis), 1 µg/mL (≈ 2.21 µM); in [3] (Enterococcus faecalis), 4 µg/mL (≈ 8.84 µM); in test [4] (Enterococcus faecalis), 0.5 µg/mL (≈ 1.1 µM); in [5] (Staphylococcus aureus), 0.5 µg/mL (≈ 1.1 µM); in test [6] (Enterococcus faecium), 1 µg/mL (≈ 2.21 µM). Also, the MIC90 amounted to 1 µg/mL (≈ 2.21 µM) in test [7] (Staphylococcus epidermidis); 4 µg/mL (≈ 8.84 µM) in [8] (Enterococcus faecium); 0.5 µg/mL (≈ 1.1 µM) in [9] (Staphylococcus epidermidis); 2 µg/mL (≈ 4.42 µM) in test [10] (Moraxella catarrhalis); 4 µg/mL (≈ 8.84 µM) in [11] (Enterococcus faecium); 1 µg/mL (≈ 2.21 µM) in test [12] (Enterococcus faecium).
For the compound `CN1CCN(c2ccc(-c3ccc(N4C[C@H](Cn5ccnn5)OC4=O)cc3F)cn2)C=N1` [Compound 31], the MIC90 was determined as 1 µg/mL (≈ 2.29 µM) in test [1] (Staphylococcus aureus); 0.5 µg/mL (≈ 1.15 µM) in test [2] (Enterococcus faecalis); 2 µg/mL (≈ 4.58 µM) in [3] (Enterococcus faecalis); 0.5 µg/mL (≈ 1.15 µM) in test [4] (Enterococcus faecalis); 0.25 µg/mL (≈ 0.573 µM) in [5] (Staphylococcus aureus); 0.25 µg/mL (≈ 0.573 µM) in [6] (Enterococcus faecium). For the same compound, the MIC90 in test [7] (Staphylococcus epidermidis) was 1 µg/mL (≈ 2.29 µM); in [8] (Enterococcus faecium) it was 1 µg/mL (≈ 2.29 µM); in [9] (Staphylococcus epidermidis) it was 0.25 µg/mL (≈ 0.573 µM); in test [10] (Moraxella catarrhalis), 2 µg/mL (≈ 4.58 µM); in test [11] (Enterococcus faecium), 2 µg/mL (≈ 4.58 µM); in test [12] (Enterococcus faecium), 0.25 µg/mL (≈ 0.573 µM).
On to `O=C(C(O)CO)N1CCN(c2ccc(-c3ccc(N4C[C@H](COc5ccon5)OC4=O)cc3F)cn2)C=N1` (stereo partly drawn) [Compound 50], for which the MIC90 in test [1] (strain 2, S. aureus MR) was found to be 1 µg/mL (≈ 1.9 µM); in [2] (strain 6, E. faecalis VanA) it was 4 µg/mL (≈ 7.6 µM); in [3] (strain 7, E. faecalis VanA LR), 16 µg/mL (≈ 30.4 µM); in test [4] (strain 5, E. faecalis), 2 µg/mL (≈ 3.8 µM); in test [5] (strain 1, S. aureus), 0.5 µg/mL (≈ 0.95 µM); in test [6] (strain 9, E. faecium VanA), 2 µg/mL (≈ 3.8 µM). The MIC90 was 4 µg/mL (≈ 7.6 µM) in [7] (strain 4, S. epidermidis MR); 16 µg/mL (≈ 30.4 µM) in [8] (strain 10, E. faecium VanA LR); 1 µg/mL (≈ 1.9 µM) in [9] (strain 3, S. epidermidis); >128 µg/mL in [10] (strain 12, M. catarrhalis); 32 µg/mL (≈ 60.8 µM) in test [11] (strain 11, E. faecium VanA LR); 0.5 µg/mL (≈ 0.95 µM) in [12] (strain 8, E. faecium).
Take `CNC(=O)N1CCN(c2ccc(-c3ccc(N4C[C@H](CNC(=O)OC)OC4=O)cc3F)cn2)C=N1` [Compound 27]: the MIC90 amounted to 2 µg/mL (≈ 4.12 µM) in test [1] (Staphylococcus aureus); 0.5 µg/mL (≈ 1.03 µM) in test [2] (Enterococcus faecalis); 4 µg/mL (≈ 8.24 µM) in [3] (Enterococcus faecalis); 0.5 µg/mL (≈ 1.03 µM) in [4] (Enterococcus faecalis); 0.5 µg/mL (≈ 1.03 µM) in test [5] (Staphylococcus aureus); 0.5 µg/mL (≈ 1.03 µM) in test [6] (Enterococcus faecium). Also, the MIC90 in test [7] (Staphylococcus epidermidis) stood at 2 µg/mL (≈ 4.12 µM); in [8] (Enterococcus faecium) it was 2 µg/mL (≈ 4.12 µM); in test [9] (Staphylococcus epidermidis), 1 µg/mL (≈ 2.06 µM); in test [10] (Moraxella catarrhalis), 4 µg/mL (≈ 8.24 µM); in test [11] (Enterococcus faecium), 2 µg/mL (≈ 4.12 µM); in test [12] (Enterococcus faecium), 0.25 µg/mL (≈ 0.515 µM).
Regarding `CN1CCN(c2ccc(-c3ccc(N4C[C@H](CNc5ccon5)OC4=O)cc3F)cn2)C=N1` [Compound 40], the MIC90 was found to be 0.25 µg/mL (≈ 0.554 µM) in test [1] (strain 2, S. aureus MR); 1 µg/mL (≈ 2.22 µM) in test [2] (strain 6, E. faecalis VanA); 2 µg/mL (≈ 4.43 µM) in [3] (strain 7, E. faecalis VanA LR); 0.5 µg/mL (≈ 1.11 µM) in test [4] (strain 5, E. faecalis); 0.25 µg/mL (≈ 0.554 µM) in test [5] (strain 1, S. aureus); 0.5 µg/mL (≈ 1.11 µM) in test [6] (strain 9, E. faecium VanA). The MIC90 in test [7] (strain 4, S. epidermidis MR) came to 2 µg/mL (≈ 4.43 µM); in [8] (strain 10, E. faecium VanA LR) it was 4 µg/mL (≈ 8.86 µM); in test [9] (strain 3, S. epidermidis) it was 0.5 µg/mL (≈ 1.11 µM); in test [10] (strain 12, M. catarrhalis) it was 2 µg/mL (≈ 4.43 µM); in test [11] (strain 11, E. faecium VanA LR), 4 µg/mL (≈ 8.86 µM); in [12] (strain 8, E. faecium) it was 0.125 µg/mL (≈ 0.277 µM).
For `COC(=O)NC[C@H]1CN(c2ccc(-c3ccc(N4CCON=C4C)nc3)c(F)c2)C(=O)O1` [Compound 63], the MIC90 in test [1] (Staphylococcus aureus, strain 2, S. aureus MR, read-out: MIC90) was 2 µg/mL (≈ 4.51 µM); in test [2] (Enterococcus faecalis, strain 6, E. faecalis VanA, read-out: MIC90), 2 µg/mL (≈ 4.51 µM); in [3] (Enterococcus faecalis, strain 7, E. faecalis VanA LR, read-out: MIC90), 16 µg/mL (≈ 36.1 µM); in test [4] (Enterococcus faecalis, strain 5, E. faecalis, read-out: MIC90) it was 2 µg/mL (≈ 4.51 µM); in [5] (Staphylococcus aureus, strain 1, S. aureus, read-out: MIC90), 2 µg/mL (≈ 4.51 µM); in test [6] (Enterococcus faecium, strain 9, E. faecium VanA, read-out: MIC90), 2 µg/mL (≈ 4.51 µM). Also, the MIC90 was 4 µg/mL (≈ 9.02 µM) in test [7] (Staphylococcus epidermidis, strain 4, S. epidermidis MR, read-out: MIC90); 16 µg/mL (≈ 36.1 µM) in [8] (Enterococcus faecium, strain 10, E. faecium VanA LR, read-out: MIC90); 1 µg/mL (≈ 2.26 µM) in test [9] (Staphylococcus epidermidis, strain 3, S. epidermidis, read-out: MIC90); 8 µg/mL (≈ 18 µM) in [10] (Moraxella catarrhalis, strain 12, M. catarrhalis, read-out: MIC90); 16 µg/mL (≈ 36.1 µM) in test [11] (Enterococcus faecium, strain 11, E. faecium VanA LR, read-out: MIC90); 1 µg/mL (≈ 2.26 µM) in test [12] (Enterococcus faecium, strain 8, E. faecium, read-out: MIC90).

The values are drawn from patent US8846669B2, “Oxazolidinone derivative and medical composition containing same” (Legochem Biosciences, Inc., priority 2011, dated 2014).
